Test results taken from patent US7511145B2 (Genelabs Technologies, Inc., priority 2003, dated 2009).

Target: T1, HCV-NS5b (Hepatitis C virus genotype 1b, UniProt Q9WMX2)
T1 construct: (His)6 (C); made in house; host or cells: XL-1 cells (E. coli), IPTG-inducible plasmid, nickel-NTA purification
Assay: HCV-NS5b enzyme assay (incorporation of radiolabeled UTP)
Format: biochemical
Details: for inhibition at 33 µM: enzyme inhibition at compound concentration of 33 uM; for inhibition at 100 µM: read-out: % inh@100, enzyme inhibition at compound concentration of 100 uM
How it was run: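 His6-tagged NS5b lacking the C-terminal 21 residues, expressed in XL-1 and Ni-NTA purified. Reaction at pH 7.5 with 5 mM MgCl2, 10 μM each NTP including [3H]-UTP and biotinylated HCV heteropolymeric template, 2 h at 37° C; SPA read-out; % inhibition at 100 and 33 uM versus no-compound control, background subtracted.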

O=C(O)c1ccc2c(c1)nc(-c1ccc3nc(-c4ccc(Oc5ccccc5)cc4)ccc3c1)n2C1CCCCC1 [Compound 428, 1-cyclohexyl-2-[2-(4-phenoxy-phenyl)-quinolin-6-yl]-1H-benzoimidazole-5-carboxylic acid]
inhibition at 33 µM: 98.8% | inhibition at 100 µM: 99.6%

O=C(O)c1ccc2c(c1)nc(-c1ccc3nc(-c4ccc(N5CCOCC5)cc4)ccc3c1)n2C1CCCCC1 [Compound 429, 1-cyclohexyl-2-[2-(4-morpholin-4-yl-phenyl)-quinolin-6-yl]-1H-benzoimidazole-5-carboxylic acid]
inhibition at 33 µM: 96.2% | inhibition at 100 µM: 101%

O=C(O)c1ccc2c(c1)nc(-c1ccc3nc(-c4cc(OCCCN5CCCC5)ccc4-c4ccccc4)ccc3c1)n2C1CCCCC1 [Compound 430, 1-Cyclohexyl-2-{2-[4-(3-pyrrolidin-1-yl-propoxy)-biphen-2-yl]-quinolin-6-yl}-1H-benzoimidazole-5-carboxylic acid]
inhibition at 33 µM: 98% | inhibition at 100 µM: 96.7%

O=C(O)c1ccc2c(c1)nc(-c1ccc3nc(-c4cn(-c5cccnc5Cl)c(=O)[nH]c4=O)ccc3c1)n2C1CCCCC1 [Compound 431, 2-{2-[1-(2-chloro-pyridin-3-yl)-2,4-dioxo-1,2,3,4-tetrahydro-pyrimidin-5-yl]-quinolin-6-yl}-1-cyclohexyl-1H-benzoimidazole-5-carboxylic acid]
inhibition at 33 µM: 95.3% | inhibition at 100 µM: 96.4%

O=C(O)c1ccc2c(c1)nc(-c1ccc3nc(-c4cc[nH]c4)ccc3c1)n2C1CCCCC1 [Compound 432, 1-cyclohexyl-2-[2-(1H-pyrrol-3-yl)-quinolin-6-yl]-1H-benzoimidazole-5-carboxylic acid]
inhibition at 33 µM: 88.9% | inhibition at 100 µM: 96.4%

O=C(O)c1ccc2c(c1)nc(-c1ccc3nc(-c4ccccc4)cc(Nc4ccccc4)c3c1)n2C1CCCCC1 [Compound 433, 1-cyclohexyl-2-(2-phenyl-4-phenylamino-quinolin-6-yl)-1H-benzoimidazole-5-carboxylic acid]
inhibition at 33 µM: 92.5% | inhibition at 100 µM: 100%

COc1cccc(O)c1-c1ccc2cc(-c3nc4cc(C(=O)O)ccc4n3C3CCCCC3)ccc2n1 [Compound 434, 1-cyclohexyl-2-[2-(2-hydroxy-6-methoxy-phenyl)-quinolin-6-yl]-1H-benzoimidazole-5-carboxylic acid]
inhibition at 33 µM: 105% | inhibition at 100 µM: 102%

O=C(O)c1ccc2c(c1)nc(-c1ccc3nc(-c4cc(C(=O)N5CCCC5)ccc4-c4ccc([N+](=O)[O-])cc4)ccc3c1)n2C1CCCCC1 [Compound 435, 1-cyclohexyl-2-{2-[4′-nitro-4-(pyrrolidine-1-carbonyl)biphen-2-yl]quinolin-6-yl}-1H-benzimidazole-5-carboxylic acid]
inhibition at 33 µM: 102% | inhibition at 100 µM: 101%

COc1ccc(-c2ccc(C(F)(F)F)cc2)c(-c2ccc3cc(-c4nc5cc(C(=O)O)ccc5n4C4CCCCC4)ccc3n2)c1 [Compound 436, 1-cyclohexyl-2-[2-(4-methoxy-4′-trifluoromethyl-biphen-2-yl)-quinolin-6-yl]-1H-benzoimidazole-5-carboxylic acid]
inhibition at 33 µM: 98.8% | inhibition at 100 µM: 99.3%

COc1ccc(-c2cccc(C(=O)O)c2)c(-c2ccc3cc(-c4nc5cc(C(=O)O)ccc5n4C4CCCCC4)ccc3n2)c1 [Compound 437, 2-[2-(3′-carboxy-4-methoxy-biphen-2-yl)-quinolin-6-yl]-1-cyclohexyl-1H-benzoimidazole-5-carboxylic acid]
inhibition at 33 µM: 100% | inhibition at 100 µM: 101%

COc1ccc(-c2ccc(C)cc2)c(-c2ccc3cc(-c4nc5cc(C(=O)O)ccc5n4C4CCCCC4)ccc3n2)c1 [Compound 438, 1-cyclohexyl-2-[2-(4-methoxy-4′-methyl-biphen-2-yl)-quinolin-6-yl]-1H-benzoimidazole-5-carboxylic acid]
inhibition at 33 µM: 98.7% | inhibition at 100 µM: 99.6%
